{
  "source": "patent EP4748844A1",
  "about": "“AZETIDINE COMPOUND AND MEDICAL USE THEREOF” (SHANGHAI INSTITUTE OF MATERIA MEDICA, CHINESE ACADEMY OF …, priority 2023, dated 2025)",
  "key": {"[1]": {"system": "ISG gene expression induced by MSA-2 in human THP1-Blue-ISG cells", "assay": "Inhibition of MSA-2-induced ISG gene expression in human THP1-Blue-ISG cells (Quanti-Blue, OD650)", "type": "cell-based", "conditions": "STING agonist MSA-2 10 µM, incubated for 24 hours", "protocol": "10 µL of compound diluted with PBS/physiological saline was added to each well of a 96 well cell culture plate. The STING agonist was MSA-2, which was added to the counted cell suspension at a final concentration of 10 µM. For the control group without compounds, 10 µL of PBS/physiological saline containing 2% DMSO was added. 3 replicate wells were set in each group. THP1-Blue-ISG cells were counted and adjusted to a cell concentration of 4× 10^5/mL, and 190 µL of cells containing STING agonist were added to each well for incubation. Therefore, the final volume of each test well was 200 µL, the content of DMSO was 0.1%, and the final concentration of the compound tested was 10/3.3/1.1/0.4/0.13/0.04/0.013/0.004 µM, incubated for 24 hours. In addition, 190 µL of cells without STING agonist and 10 µL of physiological saline containing 2% DMSO were added to the blank group. 3 replicate wells were set in each group.\nAfter 24 hours, 20 µL of culture medium was taken from each well and transferred to a new 96 well plate. 180 µL of chromogenic solution Quanti-Blue was added. The plate was placed in a 37 °C incubator. After 2 hours, the OD650 values were measured.\nResult analysis: Inhibition rate (%) = (Con(OD650)−Treated(OD650))/Con(OD650) × 100% [formula]\nThe IC50 calculation of inhibitors was implemented using the Graphpad Prism 8 software's calculation method log (inhibitor) vs. response - Variable slope (four parameters), with a constrain interval of 0-100."}, "[2]": {"system": "ISG gene expression induced by MSA-2 in human THP1-Dual cells", "assay": "Inhibition of MSA-2-induced ISG gene expression in human THP1-Dual cells (QUANTI-Luc)", "type": "cell-based", "conditions": "STING agonist MSA-2 10 µM, incubated for 24 hours", "in_short": "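THP1-Dual cells (4×10^5/mL) stimulated with MSA-2 at 10 µM final and exposed for 24 h to compound at 10 to 0.004 µM (0.1% DMSO), triplicate wells. Supernatant luciferase read with QUANTI-Luc; % inhibition relative to MSA-2-only control, IC50 from four-parameter variable-slope fit constrained 0–100.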"}, "[3]": {"system": "Trex1-D18N autoimmune mouse model", "assay": "Inflammatory inhibitory effect of oral administration in Trex1-D18N autoimmune mouse model", "type": "in vivo", "conditions": "I-77 20mpk, daily for one month, qPCR of Cxcl10/IP10, ISG15, ISG56, IFN-β, IFN-γ, STAT2 in heart, Figure 10", "protocol": "The model mice were purchased from GEMPHARMATECH CO., LTD., and the wild-type C57/BL6 mice were also purchased from GEMPHARMATECH CO., LTD.. Compound preparation method: 2 mg of I-77 powder was taken, 12 µL of PEG400 was added thereto and ultrasonically dissolved, and then 8 µL of Tween 80 was added and ultrasonically mixed to prepare a 100 mg/mL stock solution.\nExperimental grouping: Wild type mice control group (Control) was administered vehicle solvent; The model mice group (Model) was administered vehicle solvent; The treatment group (I-77) was administered I-77 (20mpk, PO) to the model mice. The mice in the I-77 group were intragastrically administered 200 µL of I-77 solution at a final concentration of […] daily, which was prepared by dilution with double-distilled water; The same dose of vehicle solvent was administered to the remaining groups continuously for one month. The heart was collected from the experimental endpoint samples. RNA extraction was performed on heart samples, and the RNA was reversed to cDNA. Changes in gene expression of inflammation related cytokines (Cxcl10/IP10, ISG15, ISG56, IFN-β, IFN-γ, and STAT2) in the tissues were detected using qPCR technology. Statistical method: One way ANOVA, *P<0.05, **P<0.01, ***P<0.001, ***P<0.0001."}},
  "data": [
    {"smiles": "CC1(C)C(=O)N(Cc2ccsc2)c2cc(C(=O)Nc3c[nH]c4ccccc34)ccc21", "note": "[Example I-77, N-(1H-indol-3-yl)-3,3-dimethyl-2-oxo-1-(thien-3-ylmethyl)indolin-6-carboxamide]", "values": [
      {"measurement": "IC50", "setting": "[1]", "value": 162, "unit": "nM"},
      {"measurement": "IC50", "setting": "[2]", "value": 0.63, "unit": "nM"},
      {"measurement": "cardiac inflammation related cytokine expression in the Trex1-D18N model", "setting": "[3]", "value": "significantly inhibit the upregulation"}
    ]}
  ]
}
